Reference: patent US12612384B2, “Heterocyclic CYP4A inhibitor compounds and compositions thereof” (MBD CO., LTD., priority 2021, dated 2026)

What follows are compounds tested against T1, CYP4A (Homo sapiens, UniProt Q02928) (assay: CYP4A enzyme assay (luminescence, Luciferin-ME)). Settings: Compound concentration 5 μM; 70%-90%; read-out: % Inhibition 70%-90%.
T1 construct: purchased; host or cells: bacterial membranes ('bactosome')
T1 sequence (Q02928 5-519): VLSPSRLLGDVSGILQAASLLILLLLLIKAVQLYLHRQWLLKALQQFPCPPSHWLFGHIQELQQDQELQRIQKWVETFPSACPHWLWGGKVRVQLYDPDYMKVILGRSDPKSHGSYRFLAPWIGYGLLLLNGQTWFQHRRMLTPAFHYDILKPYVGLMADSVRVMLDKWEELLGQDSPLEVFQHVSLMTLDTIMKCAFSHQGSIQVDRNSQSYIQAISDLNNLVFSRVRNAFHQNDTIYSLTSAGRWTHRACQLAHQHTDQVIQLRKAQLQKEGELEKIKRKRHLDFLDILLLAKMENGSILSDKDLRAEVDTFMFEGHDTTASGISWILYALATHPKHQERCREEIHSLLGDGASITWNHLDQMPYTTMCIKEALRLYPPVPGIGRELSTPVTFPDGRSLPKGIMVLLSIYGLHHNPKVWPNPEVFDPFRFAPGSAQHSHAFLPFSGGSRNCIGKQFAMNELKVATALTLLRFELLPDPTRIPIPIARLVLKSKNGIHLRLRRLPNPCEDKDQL
Format: biochemical
Experimental: The CYP4A inhibitory activity of the above compounds of the examples was measured. The reagents used in the experiment were commercially available, and were prepared and used when necessary. The device used for measuring activity was SpectraMax of MOLECULAR DEVICES.
CYP4A bactosome and the compounds to be evaluated (5 μM) were each diluted in assay buffer (100 mM KPO4, 0.1% BSA, 1 mM DTT) and mixed in a 384 well plate (white opaque polystyrene nontreated flat-bottom well), and reaction was carried out at room temperature for 15 minutes. To induce CYP4A reaction, 5 mM Luciferin-ME, NADPH Regeneration system (10× sol. A, 20× sol. B in assay buffer, Cat. Number: V865B, Promega) were sequentially added and mixed, and the reaction was carried out at room temperature for 30 minutes. Then, Luciferin Detection reagent was added thereto and reacted at room temperature for 15 minutes to stop the CYP4A reaction and induce a luminescence reaction. Finally, after measuring the luminescence value using a microplate reader, the inhibition of CYP4A activity by the compounds was evaluated by comparing the luminescence value from each well.

Row | SMILES | inhibition at 5 µM
1 | O=C(C1CCN(S(=O)(=O)c2ccc(Br)cc2)C1)N1CCN(c2ccnc3cc(F)ccc23)CC1 (stereo not shown) [Example 16, (1-((4-bromophenyl)sulfonyl)pyrrolidin-3-yl)(4-(7-fluoroquinolin-4-yl)piperazin-1-yl)methanone] | 70 to 90%
2 | O=C(C1CCN(S(=O)(=O)c2ccc(Cl)nc2)C1)N1CCN(c2ccnc3ccccc23)CC1 (stereo not shown) [Example 24, (1-((6-chloropyridin-3-yl)sulfonyl)pyrrolidin-3-yl)(4-(quinolin-4-yl)piperazin-1-yl)methanone] | 70 to 90%

Same assay, conditions: Compound concentration 5 μM; Greater than 90%; read-out: % Inhibition Greater than 90%

Row | SMILES | inhibition at 5 µM
3 | CC(=O)Nc1ccc(S(=O)(=O)N2CCC(C(=O)N3CCN(c4ccnc5cc(F)ccc45)CC3)C2)cc1 (stereo not shown) [Example 1, N-(4-((3-(4-(7-fluoroquinolin-4-yl)piperazine-1-carbonyl)pyrrolidin-1-yl)sulfonyl)phenyl)acetamide] | > 90%
4 | CC(=O)Nc1ccc(S(=O)(=O)N2CC[C@@H](C(=O)N3CCN(c4ccnc5cc(F)ccc45)CC3)C2)cc1 [Example 2, (R)—N-(4-((3-(4-(7-fluoroquinolin-4-yl)piperazine-1-carbonyl)pyrrolidin-1-yl)sulfonyl)phenyl)acetamide] | > 90%
5 | CN(C)c1ccc(S(=O)(=O)N2CCC(C(=O)N3CCN(c4ccnc5cc(F)ccc45)CC3)C2)cc1 (stereo not shown) [Example 3, (1-((4-(dimethylamino)phenyl)sulfonyl)pyrrolidin-3-yl)(4-(7-fluoroquinolin-4-yl)piperazin-1-yl)methanone] | > 90%
6 | O=C(C1CCN(S(=O)(=O)c2ccc(O)cc2)C1)N1CCN(c2ccnc3cc(F)ccc23)CC1 (stereo not shown) [Example 4, (4-(7-fluoroquinolin-4-yl)piperazin-1-yl)(1-((4-hydroxyphenyl)sulfonyl)pyrrolidin-3-yl)methanone] | > 90%
7 | Cn1ccnc1S(=O)(=O)N1CCC(C(=O)N2CCN(c3ccnc4cc(F)ccc34)CC2)C1 (stereo not shown) [Example 5, (4-(7-fluoroquinolin-4-yl)piperazin-1-yl)(1-((1-methyl-1H-imidazol-2-yl)sulfonyl)pyrrolidin-3-yl)methanone] | > 90%
8 | Cn1ccnc1S(=O)(=O)N1CC[C@@H](C(=O)N2CCN(c3ccnc4cc(F)ccc34)CC2)C1 [Example 6, (R)-(4-(7-fluoroquinolin-4-yl)piperazin-1-yl)(1-((1-methyl-1H-imidazol-2-yl)sulfonyl)pyrrolidin-3-yl)methanone] | > 90%
9 | Cn1ccnc1S(=O)(=O)N1CC[C@H](C(=O)N2CCN(c3ccnc4cc(F)ccc34)CC2)C1 [Example 7, (S)-(4-(7-fluoroquinolin-4-yl)piperazin-1-yl)(1-((1-methyl-1H-imidazol-2-yl)sulfonyl)pyrrolidin-3-yl)methanone] | > 90%
10 | O=C(C1CCN(S(=O)(=O)c2ccc([N+](=O)[O-])cc2)C1)N1CCN(c2ccnc3cc(F)ccc23)CC1 (stereo not shown) [Example 8, (4-(7-fluoroquinolin-4-yl)piperazin-1-yl)(1-((4-nitrophenyl)sulfonyl)pyrrolidin-3-yl)methanone] | > 90%
11 | CC(=O)Nc1cccc(S(=O)(=O)N2CCC(C(=O)N3CCN(c4ccnc5cc(F)ccc45)CC3)C2)c1 (stereo not shown) [Example 9, N-(3-((3-(4-(7-fluoroquinolin-4-yl)piperazine-1-carbonyl)pyrrolidin-1-yl)sulfonyl)phenyl)acetamide] | > 90%
12 | O=C(C1CCN(S(=O)(=O)c2ncn[nH]2)C1)N1CCN(c2ccnc3cc(F)ccc23)CC1 (stereo not shown) [Example 10, (1-((1H-1,2,4-triazol-5-yl)sulfonyl)pyrrolidin-3-yl)(4-(7-fluoroquinolin-4-yl)piperazin-1-yl)methanone] | > 90%
13 | Cc1n[nH]c(C)c1S(=O)(=O)N1CCC(C(=O)N2CCN(c3ccnc4cc(F)ccc34)CC2)C1 (stereo not shown) [Example 11, (1-((3,5-dimethyl-1H-pyrazol-4-yl)sulfonyl)pyrrolidin-3-yl)(4-(7-fluoroquinolin-4-yl)piperazin-1-yl)methanone] | > 90%
14 | Cc1nn(C)c(C)c1S(=O)(=O)N1CCC(C(=O)N2CCN(c3ccnc4cc(F)ccc34)CC2)C1 (stereo not shown) [Example 12, (4-(7-fluoroquinolin-4-yl)piperazin-1-yl)(1-((1,3,5-trimethyl-1H-pyrazol-4-yl)sulfonyl)pyrrolidin-3-yl)methanone] | > 90%
15 | O=C(C1CCN(S(=O)(=O)c2ncc[nH]2)C1)N1CCN(c2ccnc3cc(F)ccc23)CC1 (stereo not shown) [Example 13, (1-((1H-imidazol-2-yl)sulfonyl)pyrrolidin-3-yl)(4-(7-fluoroquinolin-4-yl)piperazin-1-yl)methanone] | > 90%
16 | Cn1cncc1S(=O)(=O)N1CCC(C(=O)N2CCN(c3ccnc4cc(F)ccc34)CC2)C1 (stereo not shown) [Example 14, (4-(7-fluoroquinolin-4-yl)piperazin-1-yl)(1-((1-methyl-1H-imidazol-5-yl)sulfonyl)pyrrolidin-3-yl)methanone] | > 90%
17 | O=C(C1CCN(S(=O)(=O)c2ccc(-c3cnco3)cc2)C1)N1CCN(c2ccnc3cc(F)ccc23)CC1 (stereo not shown) [Example 15, (4-(7-fluoroquinolin-4-yl)piperazin-1-yl)(1-((4-(oxazol-5-yl)phenyl)sulfonyl)pyrrolidin-3-yl)methanone] | > 90%
18 | O=C(C1CCN(S(=O)(=O)c2ccc(-c3ccncc3)cc2)C1)N1CCN(c2ccnc3cc(F)ccc23)CC1 (stereo not shown) [Example 17, (4-(7-fluoroquinolin-4-yl)piperazin-1-yl)(1-((4-(pyridin-4-yl)phenyl)sulfonyl)pyrrolidin-3-yl)methanone] | > 90%
19 | O=C([C@@H]1CCN(S(=O)(=O)c2ccc(-c3ccncc3)cc2)C1)N1CCN(c2ccnc3cc(F)ccc23)CC1 [Example 18, (R)-(4-(7-fluoroquinolin-4-yl)piperazin-1-yl)(1-((4-(pyridin-4-yl)phenyl)sulfonyl)pyrrolidin-3-yl)methanone] | > 90%
20 | O=C([C@H]1CCN(S(=O)(=O)c2ncn[nH]2)C1)N1CCN(c2ccnc3cc(F)ccc23)CC1 [Example 19, (S)-(1-((1H-1,2,4-triazol-5-yl)sulfonyl)pyrrolidin-3-yl)(4-(7-fluoroquinolin-4-yl)piperazin-1-yl)methanone] | > 90%
21 | CC(C)(C)c1n[nH]c(S(=O)(=O)N2CCC(C(=O)N3CCN(c4ccnc5cc(F)ccc45)CC3)C2)n1 (stereo not shown) [Example 20, (1-((5-(tert-butyl)-4H-1,2,4-triazol-3-yl)sulfonyl)pyrrolidin-3-yl)(4-(7-fluoroquinolin-4-yl)piperazin-1-yl)methanone] | > 90%
22 | CC(=O)Nc1ccc(S(=O)(=O)N2CCC(C(=O)N3CCN(c4ccnc5ccccc45)CC3)C2)cc1 (stereo not shown) [Example 21, N-(4-((3-(4-(quinolin-4-yl)piperazine-1-carbonyl)pyrrolidin-1-yl)sulfonyl)phenyl)acetamide] | > 90%
23 | CC(=O)Nc1ccc(S(=O)(=O)N2CC[C@@H](C(=O)N3CCN(c4ccnc5ccccc45)CC3)C2)cc1 [Example 22, (R)—N-(4-((3-(4-(quinolin-4-yl)piperazine-1-carbonyl)pyrrolidin-1-yl)sulfonyl)phenyl)acetamide] | > 90%
24 | CC(=O)Nc1ccc(S(=O)(=O)N2CC[C@H](C(=O)N3CCN(c4ccnc5ccccc45)CC3)C2)cc1 [Example 23, (S)—N-(4-((3-(4-(quinolin-4-yl)piperazine-1-carbonyl)pyrrolidin-1-yl)sulfonyl)phenyl)acetamide] | > 90%
25 | O=C(C1CCN(S(=O)(=O)c2ccc(-c3ccccc3)nc2)C1)N1CCN(c2ccnc3ccccc23)CC1 (stereo not shown) [Example 25, (1-((6-phenylpyridin-3-yl)sulfonyl)pyrrolidin-3-yl)(4-(quinolin-4-yl)piperazin-1-yl)methanone] | > 90%
26 | O=C(C1CCN(S(=O)(=O)c2ccc(-c3ccncc3)nc2)C1)N1CCN(c2ccnc3ccccc23)CC1 (stereo not shown) [Example 26, (1-([2,4′-bipyridin]-5-ylsulfonyl)pyrrolidin-3-yl)(4-(quinolin-4-yl)piperazin-1-yl)methanone] | > 90%
27 | O=C(C1CCN(S(=O)(=O)c2ccc(-c3cccc(O)c3)nc2)C1)N1CCN(c2ccnc3ccccc23)CC1 (stereo not shown) [Example 27, (1-((6-(3-hydroxyphenyl)pyridin-3-yl)sulfonyl)pyrrolidin-3-yl)(4-(quinolin-4-yl)piperazin-1-yl)methanone] | > 90%
28 | O=C(C1CCN(S(=O)(=O)c2ccc(-c3ccc(O)cc3)nc2)C1)N1CCN(c2ccnc3ccccc23)CC1 (stereo not shown) [Example 28, (1-((6-(4-hydroxyphenyl)pyridin-3-yl)sulfonyl)pyrrolidin-3-yl)(4-(quinolin-4-yl)piperazin-1-yl)methanone] | > 90%
